Where a name gives a salt, the structure may show the parent alone.
Columns and labels:
[1] = tested on: APP/PS1 double transgenic mice; test: Morris water maze in APP/PS1 transgenic mice; format: in vivo; details: intragastric administration for 2 months
Text: (§1) The wild-type (WT) and APP/PS1 double transgenic mice used in the experiment of the present invention were purchased from the Model Animal Research Institute of Nanjing University, and the mouse genes were identified in strict accordance with the PCR method provided.
In the Morris water maze experiment, the mouse water maze training was two days (data not recorded). The mice were placed into the pool from 4 entry points (quadrants) facing the pool wall. The platform was hidden 1 cm underwater, and the water temperature was kept at 23° C. , and the training lasted for 2 minutes. […] The experiment phase started from the third day, and the experiment was continued for 6 days. Each mouse was tested once a day. During the experiment, the mice were respectively placed into the pool from 4 entry points (quadrants) facing the pool wall.
The time was recorded from the mice entering the water to the mice finding and staying in the underwater hidden platform. That was called as the incubation period. On the eighth day, the platform was removed, and each mouse was launched from the farthest position of the original platform and swam freely for 2 minutes. The swimming time of the animal in the target quadrant (the area where the platform located), the number of times of traversing the platform, the path and other main parameters were tracked and recorded by the miniature camera and analyzed.

Aβ protein monomer = target: T1, Aβ protein monomer (Homo sapiens, UniProt P05067); test: Circular dichroism spectrum experiment (CD) of Aβ β-sheet formation; format: biochemical; details: Aβ 20 uM; drug 10, 20, 40 uM; 12 hours 37° C.
T1 construct: purchased Nanjing Elutrian Biological Co. Ltd
T1 sequence (P05067 672-713 limits assumed): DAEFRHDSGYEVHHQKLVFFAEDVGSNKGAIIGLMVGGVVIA
Description: The A beta monomer was mixed with a drug, the final concentration of Aβ was 20 uM, the final concentrations of the drug were 0 uM, 10 uM, 20 uM and 40 uM respectively, and after 12 hours incubation at 37° C., a J-810 spectrometer (Jayasco, Japan) was used for detection. The wavelength range was 190-250 nm, the resolution was 0.5 nm, the spectrum width was 2 nm, the scanning speed was 100 nm/min, the response time was 1 s, and the measuring temperature was normal temperature. The solution was added to a quartz cuvette with an optical path of 0.1 mm for measurement, and each experiment was repeated three times. Subtracting the buffer curve from each scan curve as the experimental result, each experiment was repeated three times, and the average value was given.

APP/PS1 transgenic mice = test: Thioflavin S and Congo red staining of brain Aβ plaques in APP/PS1 transgenic mice; format: in vivo
Text: as §1
10-month-old AD mice were anesthetized with 0.4% pentobarbital sodium. Blood was taken by perfusing the atria. 4% paraformaldehyde was perfused for whole body fixation. The brain tissue was taken and weighed. The hemibrains were put into 4% paraformaldehyde solution and used for histopathology. The other half was stored in a cryotube at −80° C. for biochemical analysis. The brain tissues fixed with 4% paraformaldehyde were embedded in wax and sliced. The plaques in the cerebral cortex and hippocampus were stained with Thioflavin S and Congo Red. Pathological images were obtained by digital microscope and fluorescence microscope and quantitatively analyzed.

Aβ42 monomers = target: T2, Aβ42 monomers (Homo sapiens, UniProt P05067); test: Thioflavin T test (ThT) of Aβ42 monomer aggregation; format: biochemical; details: Aβ 20 uM; drug 10, 20, 40 uM; 37° C. 24 hours; concentration-dependent
T2 construct: purchased Nanjing Elutrian Biological Co. Ltd
T2 sequence (P05067 672-713 limits assumed): as above
Description: The protein A beta protein was provided by Nanjing Elutrian Biological Co. Ltd. and the purity was greater than 95%. The compound macroflavin was provided by Shanghai Yuan-Ye biological company. The Aβ monomer powder was stored at −80° C., standing for 30 minutes at room temperature for the first time, then diluted with hexafluoroisopropanol (HFIP) to 1.0 mg/mL. It stood for at least 2 hours, carrying out ultrasonic 30 minutes to destroy the existing multi-polymer structure, standing and drying at low temperature, was immediately stored at −20° C. Thioflavin T was purchased from Sigma (cargo number T3516-5 G). 0.032 g of THT powder was weighed and dissolved in 20 mL of 20 mM Tris-HCl (pH 7.4) solution to obtain a 5 mM THT mother liquor, and was diluted to 5 uM when used.

Aβ42 monomer = target: T3, Aβ42 monomer (Homo sapiens, UniProt P05067); test: Transmission electron microscopy (TEM) of Aβ42 fiber formation; format: biochemical; details: 37° C. 24 hours; concentration-dependent
T3 construct: purchased Nanjing Elutrian Biological Co. Ltd
T3 sequence (P05067 672-713 limits assumed): as above
Description: The preparation was the same as that of Example 1. Then, the Aβ protein sample was incubated at 37° C. for 24 hours, dropped on the surface of a 300 mesh carbon film copper mesh, dried in air, dyed with 2% (w/v) phosphotungstate sodium salt negative for 30 seconds, standing at room temperature for about 4 hours, then the JEM-100CXII transmission electron microscope system (JEOL Inc., Tokyo, Japan) was used to detect and take pictures with an acceleration voltage of 80 kV.

[2] = tested on: human neuroma blasts SH-SY5Y; test: MTT test of Aβ42 oligomer-mediated neurotoxicity in SH-SY5Y; format: cell-based
Description: The cells used in the Aβ42 oligomer-mediated neurotoxicity damage experiment were human neuroma blasts SH-SY5Y, incubated in DME medium of 10% FBS at 37° C. The control group without Aβ protein and the experimental group with added drug were cultured overnight at 37° C. with slow shaking, and transferred to a 96-well cell culture plate containing SH-SY5Y. The final concentration of Aβ protein was 1 uM and the final concentration of drug was 0.25 uM. 0.5 uM, 1 uM and 2 uM, three parallel holes for each concentration, action time 3 hours, MTT method 490 nm wavelength tested 5 times to analyze cell proliferation.

[3] = tested on: APP/PS1 double transgenic mice; test: Y maze in APP/PS1 transgenic mice; format: in vivo; details: after two months of treatment
Text: as §1
In the Y maze experiment, three black striped long arms were marked A, B, and C with the same appearance were combined in a Y shape. The mouse was put in the A arm, and recorded as an error if it turned back from the other long arm during free movement, such as ABA, BCB, etc., recalculated with this arm as the starting point, such as ABACBABCBA. The experiment time for each mouse lasted 8 minutes. When the experiment was completed, the Y labyrinth was cleaned and disinfected with alcohol, and the experiment was performed on the next mouse after drying.

formed Aβ fibers = target: T4, formed Aβ fibers (Homo sapiens, UniProt P05067); test: Depolymerization of the formed Aβ fibrous structure (ThT and TEM); format: biochemical
T4 construct: purchased Nanjing Elutrian Biological Co. Ltd
T4 sequence (P05067 672-713 limits assumed): as above
Description: The preparation was the same as that shown in Examples 1 and 2, except that the Aβ42 protein was first incubated at 37° C. for 48 hours, then the drug effect was added, the sample was taken at −20 ° C. every 6 hours, after 48 hours, using all of the samples for ThaT and TEAM tests.

For `COc1cc2c(cc1OC)C(=O)C(CC1CCN(Cc3ccccc3)CC1)C2` (stereo not drawn) [Arishen, donepezil hydrochloride, reference compound], the “Effect on improving symptoms of AD mice (Morris water maze)” value [1] was “limited effect” and the “Formation of the β-sheet structure of Aβ monomer (CD)” value (Aβ protein monomer) was “had no effect”.

`Cc1cc(O)c2c(c1)C(=O)c1cc(O)cc(O)c1C2=O` [emodin, 1,3,8-trihydroxy-6-methylanthracene-9, 10-dione] was tested, and the “Plaque effect compared with positive control nourishing blood serum brain drug group” value (APP/PS1 transgenic mice; 10-month-old AD mice) was “slightly better”, the “Number of stained Aβ deposition plaques in cortex or hippocampus (Thioflavin S, Congo red) vs normal saline AD mice” value (APP/PS1 transgenic mice; 10-month-old AD mice after 2 months intragastric administration) was “statistically significant reduction” and the “ThT fluorescence intensity (Aβ42 monomer aggregation) vs control group without medicine” value (Aβ42 monomers) was “significantly decreased”. The “Incubation period for AD mice to find the platform (Morris water maze)” value ([1]; 8-month-old APP/PS1 mice) was “significantly reduced”, the “Number of times AD mice crossed the virtual platform (Morris water maze)” value ([1]; platform removed) was “significantly improved” and the “Aβ protein fiber density, length and width (TEM)” value (Aβ42 monomer) was “decreased significantly”. The “MTT absorbance value (protection from Aβ42 oligomer-mediated neurocytotoxicity) vs control group without drug” value ([2]; Aβ 1 uM, drug 0.25, 0.5, 1, 2 uM, 3 hours, 490 nm) was “increased significantly”, the “MTT effect compared with positive control curcumin” value ([2]; when the concentration was low) was “stronger than that of the positive control curcumin” and the “Formation of the β-sheet structure of Aβ monomer (CD)” value (Aβ protein monomer) was “significantly reduce”. The “Y maze effect compared with Arishen treatment group” value [3] was “better than the Arishen treatment group”, the “Correct rate in Y maze of AD mice” value ([3]; saline AD about 58%, WT about 82%) was “increased significantly” and the “ThT fluorescence intensity of pre-formed Aβ fibers vs non-dosing control” value (formed Aβ fibers; Aβ42 pre-incubated 37° C. 48 hours, then drug, sampled every 6 hours to 48 hours) was “remained basically unchanged”. For the same compound, the “Depolymerization of formed Aβ fibers (TEM)” value (formed Aβ fibers; after 48 hours of treatment) was “could not depolymerize”.

Reference: US20210154156A1, “APPLICATION OF COMPOUND IN INHIBITING AB ACCUMULATION AND TREATING ALZHEIMER'S DISEASE” (NORTHEAST NORMAL UNIVERSITY, priority 2018, published 2021)
